Experiments:
Format in all cases: biochemical
[1] = biological target: T1, HpDTC1 (Calohypnum plumiforme, UniProt A0A173M1U8, D394G/D395G); assay: GC-MS of product, co-incubation with OsCPS4; conditions: syn-CDP formed in situ from GGDP by OsCPS4; type A activity; product syn-pimara-7,15-diene
T1 construct: His6-tag, pCold I, E. coli M-15

[2] = biological target: T2, HpDTC1 (Calohypnum plumiforme, UniProt A0A173M1U8); assay: GC-MS of reaction product; conditions: product syn-pimara-7,15-diene
T2 construct: His6-tag, pCold I, E. coli M-15

[3] = biological target: T3, OsCPS4 (Oryza sativa, UniProt Q0JF02); assay: GC-MS of product after dephosphorylation; conditions: product syn-CDP, detected as syn-copalol after calf intestinal alkaline phosphatase
T3 construct: gene CPS4; enzyme preparation not described in main text
T3 sequence (Q0JF02 48-767): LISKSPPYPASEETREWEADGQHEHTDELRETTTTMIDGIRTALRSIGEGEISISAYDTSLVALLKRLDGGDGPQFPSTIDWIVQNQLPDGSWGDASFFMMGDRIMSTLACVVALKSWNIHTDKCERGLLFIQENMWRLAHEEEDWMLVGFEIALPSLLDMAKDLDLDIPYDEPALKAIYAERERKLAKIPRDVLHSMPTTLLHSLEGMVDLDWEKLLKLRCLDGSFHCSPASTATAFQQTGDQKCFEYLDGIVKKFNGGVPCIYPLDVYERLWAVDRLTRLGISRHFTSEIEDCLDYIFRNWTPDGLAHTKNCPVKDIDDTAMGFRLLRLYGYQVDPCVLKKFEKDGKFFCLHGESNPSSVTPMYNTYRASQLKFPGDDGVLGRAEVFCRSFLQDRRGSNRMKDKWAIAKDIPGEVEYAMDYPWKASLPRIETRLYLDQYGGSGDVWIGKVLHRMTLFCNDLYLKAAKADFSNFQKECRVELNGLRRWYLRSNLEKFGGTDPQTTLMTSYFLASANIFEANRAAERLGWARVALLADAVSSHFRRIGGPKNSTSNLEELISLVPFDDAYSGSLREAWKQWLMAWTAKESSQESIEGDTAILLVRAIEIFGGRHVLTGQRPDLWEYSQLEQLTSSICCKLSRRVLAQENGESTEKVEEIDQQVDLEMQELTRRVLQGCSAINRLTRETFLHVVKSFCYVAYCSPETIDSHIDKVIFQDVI

T1 sequence (A0A173M1U8 entry or part of it D394G/D395G): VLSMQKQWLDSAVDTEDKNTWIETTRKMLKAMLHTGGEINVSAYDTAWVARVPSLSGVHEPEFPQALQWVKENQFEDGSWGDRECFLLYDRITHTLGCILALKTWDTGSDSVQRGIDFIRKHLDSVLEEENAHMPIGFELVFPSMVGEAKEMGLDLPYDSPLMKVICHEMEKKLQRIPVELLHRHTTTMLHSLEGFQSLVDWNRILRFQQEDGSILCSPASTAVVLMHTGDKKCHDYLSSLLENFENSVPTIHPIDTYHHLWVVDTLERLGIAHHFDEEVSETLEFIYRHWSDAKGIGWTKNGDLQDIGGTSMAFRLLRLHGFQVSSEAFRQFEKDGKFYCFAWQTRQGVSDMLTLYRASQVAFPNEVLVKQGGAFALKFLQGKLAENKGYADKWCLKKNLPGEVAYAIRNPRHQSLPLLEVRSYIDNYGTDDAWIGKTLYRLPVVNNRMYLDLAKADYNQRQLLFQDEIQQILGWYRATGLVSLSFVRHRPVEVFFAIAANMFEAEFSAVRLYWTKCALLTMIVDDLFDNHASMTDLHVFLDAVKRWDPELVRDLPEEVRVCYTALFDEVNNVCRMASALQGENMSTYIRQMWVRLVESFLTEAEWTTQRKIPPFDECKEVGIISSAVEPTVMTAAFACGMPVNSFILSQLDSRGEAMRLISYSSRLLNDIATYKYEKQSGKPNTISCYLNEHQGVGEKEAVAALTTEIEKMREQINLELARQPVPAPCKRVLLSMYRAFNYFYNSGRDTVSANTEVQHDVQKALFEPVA
T2 sequence (A0A173M1U8 entry or part of it): as the sequence (A0A173M1U8 entry or part of it D394G/D395G) above, with G309D, G310D counted along it

Compound | GC-MS of product, co-incubation with OsCPS4 [1] | GC-MS of reaction product [2] | GC-MS of product after dephosphorylation [3]
C=C1CC[C@H]2C(C)(C)CCC[C@]2(C)[C@@H]1CC/C(C)=C/COP(=O)(O)OP(=O)(O)O [syn-CDP] | Co-incubation with OsCPS4 and the type B mutant of HpDTC1 (DIGG) complemented the impaired |  | 
CC(C)=CCC/C(C)=C/CC/C(C)=C/CC/C(C)=C/COP(=O)(O)OP(=O)(O)O [GGDP] |  | used for the enzyme assay using GGDP as a substrate | syn-copalol derived from syn-CDP, product of OsCPS4

Reference: article PMC4853780, “HpDTC1, a Stress-Inducible Bifunctional Diterpene Cyclase Involved in Momilactone Biosynthesis, Functions in Chemical Defence in the Moss Hypnum plumaeforme” (Scientific Reports, 2016)
